# Source: US12202785B2 (Texas Tech University System, priority 2018, dated 2025)
# Entries after “also recorded” stand apart in the source; their conditions may differ.
# How the values were obtained:
# [1] = system: Drinking In the Dark (DID) murine model of binge drinking; experiment: Drinking In the Dark (DID) murine model of binge drinking; assay type: in vivo, mice; conditions: for binge ethanol consumption: figure legends FIG. 8C to 15C, dose not given
# Method: Using a standard Drinking In the Dark (DID) murine model of binge drinking, we tested the effect of 0, 25, 35, 50 and 100 mg/kg per os (p.o.) acetylated minocycline (derivative Y, or CMM1) vs control.
# [2] = system: DBA/2J mice, alcohol withdrawal symptoms; experiment: Alcohol withdrawal, Handling Induced Convulsion scores; assay type: in vivo
# Method: Female and male DBA/2J mice were tested with CMM1, 100 mg/kg p.o., at 2 hrs following 4 g/kg 20% ethanol in saline. Shown are the Handling Induced Convulsion scores, background subtracted and summed over 24 hours. […] Mean±SEM, n=5/group.
# [3] = system: Large White x Landrace hybrid swine; experiment: Two-bucket choice water vs 5% ethanol in swine; conditions: 10 mg/kg p.o., n=3/group
# [4] = system: E. coli; experiment: E. coli zone of inhibition (ZOI) and recovered colony forming units (CFU) per disk; assay type: cell-based; conditions: dose response
# Method: Minocycline and two acetylated derivatives, CMM1 (B) and CMM2 (Y), were tested in a dose response manner for A) zone of inhibition (ZOI) and B) recovered colony forming units (CFU) per disk.
# [5] = cited from earlier work
# [6] = system: AUD traits; conditions: seven tetracyclines tested; earlier published work of the inventors; cited from earlier work
# [7] = system: DID consumption; experiment: DID ethanol consumption after intracerebroventricular (ICV) dosing; assay type: in vivo; conditions: 3 ul of 9 mg/ml icv 20 hrs prior to DID testing; n=9-11; p<0.01
# Method: To test the hypothesis that tigecycline works at the level of the CNS, rather than the PNS, 3 ul of drug (9 mg/ml) was given icy 20 hrs prior to DID testing. n=9-11, mean±SEM, **p<0.01.
# [8] = system: DID ethanol consumption; experiment: Drinking In the Dark (DID) ethanol consumption after ten-day GI microbiome sterilization; assay type: in vivo; conditions: 100 mg/kg i.p.; ampicillin, neomycin, metronidazole, vancomycin pre-treatment vs none; n=7
# Method: A ten-day “sterilization” treatment with ampicillin, neomycin, metronidozale and vancomycin was used. Bedding was changed daily to avoid repopulation. DID was started on day 11 after one day of no metronidazole. Tigecycline was given at 100 mg/kg intraperitoneal (i.p.) n=7, mean±SEM.
structure (smiles),measurement,setting,value
"CCCCOc1ccc(N(C)C)c2c1C(=O)C1=C(O)C3(O)C(=O)C(C(N)=O)=C(O)C(N(C)C)C3CC1C2 (stereo not shown) [Butyl Ether Minocycline, 10-Butoxy-4,7-bis-dimethylamino-3,12,12a-trihydroxy-1,11-dioxo-1,4,4a,5,5a,6,11,12a-octahydro-naphthacene-2-carboxylic acid amide]",binge ethanol consumption,[1],reduction of binge ethanol consumption
"CC(=O)NC(=O)c1c(OC(C)=O)c2c(c(N(C)C)c1OC(C)=O)CC1Cc3c(N(C)C)ccc(OC(C)=O)c3C(=O)C1=C2OC(C)=O (stereo not shown) [CMM1, Acetic acid 3,10,12-triacetoxy-2-acetylcarbamoyl-4,7-bis-dimethylamino-11-oxo-5,5a,6,11-tetrahydro-naphthacen-1-yl ester]",efficacy on withdrawal compared with parent drug minocycline,[2]; 100 mg/kg p.o.,more effective than the parent drug
same,"efficacy on withdrawal, females vs males",[2]; 100 mg/kg p.o.,more effective in females
same,"alcohol withdrawal symptoms (Handling Induced Convulsion scores, background subtracted, summed over 24 hours)","[2]; 100 mg/kg p.o. at 2 hrs following 4 g/kg 20% ethanol, female and male, n=5/group",reduced alcohol withdrawal symptoms
same,"onset, peak and duration of withdrawal symptoms","[2]; 100 mg/kg p.o., n=5/group","reduced onset, peak and duration of withdrawal symptoms"
same,alcohol preference,[3],reduced
same,total ethanol consumption,[3],reduced
same,antibiotic activity (ZOI and recovered CFU per disk),[4],loss of antibiotic activity even at high doses
same,dose dependence of reduction of alcohol consumption,"[1]; 0, 25, 35, 50 and 100 mg/kg p.o.",dose-dependent response
same,ethanol consumption (drinking),"[1]; 0, 25, 35, 50 and 100 mg/kg p.o. vs control, n=4/group, p=0.004",significantly reduced drinking
same,water consumption,[1]; FIGS. 5A to 5D,not water consumption
"CC(=O)NC(=O)c1c(OC(C)=O)c2c(c(N(C)C)c1OC(C)=O)CC1Cc3c(N(C)C)ccc(OC(C)=O)c3C(=O)C1=C2O (stereo not shown) [CMM2, Acetic acid 3,10-diacetoxy-2-acetylcarbamoyl-4,7-bis-dimethylamino-12-hydroxy-11-oxo-5,5a,6,11-tetrahydro-naphthacen-1-yl ester]",antibiotic activity (ZOI and recovered CFU per disk),[4],loss of antibiotic activity even at high doses
"CC(=O)NC(=O)c1c(O)cc2c(c1O)C(O)=C1C(=O)c3c(OC(C)=O)ccc(N(C)C)c3CC1C2 (stereo not shown) [De Methyl Diacetate Minocycline, Acetic acid 9-acetylcarbamoyl-4-dimethylamino-8,10,11-trihydroxy-12-oxo-5,5a,6,12-tetrahydro-naphthacen-1-yl ester]",binge ethanol consumption,[1],reduction of binge ethanol consumption
CN(C)[C@@H]1C(O)=C(C(N)=O)C(=O)[C@@]2(O)C(O)=C3C(=O)c4c(O)ccc(Cl)c4[C@@H](O)[C@H]3C[C@@H]12 [Demeclocycline],LogD,[5],−3.40
same,LogP,[5],−1.07
C[C@H]1c2cccc(O)c2C(=O)C2=C(O)[C@]3(O)C(=O)C(C(N)=O)=C(O)[C@@H](N(C)C)[C@@H]3[C@@H](O)[C@@H]21 [Doxycycline],efficacy against AUD traits,[6],efficacious; also recorded: effective
same,LogD,[5],−3.29
same,LogP,[5],−0.54
"CCOc1ccc(N(C)C)c2c1C(=O)C1=C(O)C3(O)C(=O)C(C(N)=O)=C(O)C(N(C)C)C3CC1C2 (stereo not shown) [Ethyl Ether Minocycline, 4,7-Bis-dimethylamino-10-ethoxy-3,12,12a-trihydroxy-1,11-dioxo-1,4,4a,5,5a,6,11,12a-octahydro-naphthacene-2-carboxylic acid amide]",binge ethanol consumption,[1],reduction of binge ethanol consumption
"COc1ccc(N(C)C)c2c1C(=O)C1=C(O)C3(O)C(=O)C(C(N)=O)=C(O)C(N(C)C)C3CC1C2 (stereo not shown) [Methyl Ether Minocycline, 4,7-Bis-dimethylamino-3,12,12a-trihydroxy-10-methoxy-1,11-dioxo-1,4,4a,5,5a,6,11,12a-octahydro-naphthacene-2-carboxylic acid amide]",binge ethanol consumption,[1],reduction of binge ethanol consumption
"COc1ccc(N(C)C)c2c1C(=O)C1=C(O)c3c(O)c(C(=O)NC(C)=O)c(O)c(N(C)C)c3CC1C2 (stereo not shown) [Methyl Ether N-Monoacetate Minocycline, 4,7-Bis-dimethylamino-1,3,12-trihydroxy-10-methoxy-11-oxo-5,5a,6,11-tetrahydro-naphthacene-2-carboxylic acid acetyl-amide]",binge ethanol consumption,[1],reduction of binge ethanol consumption
"COc1ccc(N(C)C)c2c1C(=O)C1=C(O)c3c(c(N(C)C)c(OC(C)=O)c(C(=O)NC(C)=O)c3OC(C)=O)CC1C2 (stereo not shown) [Methyl Ether Tri Acetate Minocycline, Acetic acid 4-acetoxy-3-acetylcarbamoyl-1,10-bis-dimethylamino-5-hydroxy-7-methoxy-6-oxo-6,11,11a,12-tetrahydro-naphthacen-2-yl ester]",binge ethanol consumption,[1],reduction of binge ethanol consumption
"CN(C)c1ccc(O)c2c1CC1CC3C(N(C)C)C(O)=C(C(N)=O)C(=O)C3(O)C(O)=C1C2=O (stereo not shown) [Minocycline, 4,7-Bis-dimethylamino-3,10,12,12a-tetrahydroxy-1,11-dioxo-1,4,4a,5,5a,6,11,12a-octahydro-naphthacene-2-carboxylic acid amide]",antibiotic activity (ZOI and recovered CFU per disk),[4],eliminated E. coli
same,efficacy against AUD traits,[6],efficacious; also recorded: effective
CN(C)[C@@H]1C(=O)C(C(N)=O)=C(O)[C@@]2(O)C(=O)C3=C(O)c4c(O)cccc4[C@@](C)(O)[C@H]3[C@H](O)[C@@H]12 [Oxytetracycline],LogD,[5],−4.25
same,LogP,[5],−1.5
"CC(=O)NC(=O)c1c(OC(C)=O)c2c(c(N(C)C)c1OC(C)=O)CC1Cc3c(N(C)C)ccc(OC(C)=O)c3C(=O)C1=C2OC(C)=O (stereo not shown) [Penta Acetyl Minocycline, Acetic acid 3,10,12-triacetoxy-2-acetylcarbamoyl-4,7-bis-dimethylamino-11-oxo-5,5a,6,11-tetrahydro-naphthacen-1-yl ester]",binge ethanol consumption,[1],reduction of binge ethanol consumption
"CCCOc1ccc(N(C)C)c2c1C(=O)C1=C(O)C3(O)C(=O)C(C(N)=O)=C(O)C(N(C)C)C3CC1C2 (stereo not shown) [Propyl Ether Minocycline, 4,7-Bis-dimethylamino-3,12,12a-trihydroxy-1,11-dioxo-10-propoxy-1,4,4a,5,5a,6,11,12a-octahydro-naphthacene-2-carboxylic acid amide]",binge ethanol consumption,[1],reduction of binge ethanol consumption
"CC(=O)NC(=O)c1c(OC(C)=O)c2c(c(N(C)C)c1OC(C)=O)CC1Cc3c(N(C)C)ccc(OC(C)=O)c3C(=O)C1=C2O (stereo not shown) [Tetra Acetyl Minocycline, Acetic acid 3,10-diacetoxy-2-acetylcarbamoyl-4,7-bis-dimethylamino-12-hydroxy-11-oxo-5,5a,6,11-tetrahydro-naphthacen-1-yl ester]",binge ethanol consumption,[1],reduction of binge ethanol consumption
CN(C)c1cc(NC(=O)CNC(C)(C)C)c(O)c2c1C[C@H]1C[C@H]3[C@H](N(C)C)C(O)=C(C(N)=O)C(=O)[C@@]3(O)C(O)=C1C2=O [Tigecycline],efficacy against AUD traits,[6],efficacious; also recorded: effective
same,DID ethanol consumption,[7],reduced DID consumption
same,DID ethanol consumption / efficacy of tigecycline after gut sterilization,[8],No significant difference
same,LogD,[5],−2.73
same,LogP,[5],−1.30
